This passage reports Activity and IC50 results from ChEMBL document CHEMBL3774385, “Small molecule glycoconjugates with anticancer activity” (Eur J Med Chem, 2016).

Calls of active or inactive are those of the source. No cut-off for these calls is given here.

Assay [1] concerns HCT-116. As to the kind of experiment: Induction of apoptosis in p53 expressing human HCT116 cells assessed as caspase-3/7 activation at IC50 after 30 to 48 hrs by luminescence assay. It counts as functional, cell-based.
A further assay relates to Calf thymus DNA. As to the kind of experiment: Binding affinity to calf thymus DNA assessed as hypochromism at 3 to 25 uM after 1.5 hrs by UV-visible spectrophotometry. It counts as nucleic-acid assay. Particulars: Bos taurus.
A short description of assay [2]: Antiproliferative activity against p53 deficient human HCT116 cells after 96 hrs by MTS assay. Format: functional, cell-based. The settings on record: HCT-116, 96 h.
Assay [3] deals with HCT-116. As to the kind of experiment: Induction of intracellular reactive oxygen species generation in p53 expressing human HCT116 cells at IC50 after 6 hrs by fluorescence-based plate reader analysis. It counts as functional, cell-based.
Assay [4] has as its system HCT-116. Description: Induction of apoptosis in p53 expressing human HCT116 cells assessed as late apoptotic cells at IC50 after 48 hrs by acridine orange/ethidium bromide staining-based epifluorescence microscopy. It counts as functional, cell-based.
The test system of assay [5] is HCT-116. Description: Induction of reactive oxygen species generation in p53 expressing human HCT116 cells at 2 times IC50 for 24 hrs by inverted fluorescent microscopy. Format: functional, cell-based.
For assay [6], the system named is HCT-116. As to the kind of experiment: Induction of apoptosis in p53 expressing human HCT116 cells assessed as early apoptotic cells at IC50 after 48 hrs by acridine orange/ethidium bromide staining-based epifluorescence microscopy. Format: functional, cell-based.
Assay [7] concerns HCT-116. As to the kind of experiment: Decrease in GSH level in p53 expressing human HCT116 cells at IC50 after 12 hrs by luminescence analysis. Format: functional, cell-based.
A short description of assay [8]: Binding affinity to Cu2+ assessed as compound-metal complex formation at compound to metal ratio of 1:0, 1:1, 2:1, 3:1, 4:1 and 5:1 after 30 mins by UV-visible spectrophotometry.
Assay [9] concerns HCT-116. Description: Antiproliferative activity against p53 expressing human HCT116 cells at IC50 after 96 hrs by MTS assay in presence of 50 uM of ZnCl2. It counts as functional, cell-based.
The subject of the next assay is NHDF. Description: Cytotoxicity against human NHDF cells after 96 hrs by MTS assay. Format: cell-based.
Assay [10] is described as follows: Binding affinity to Zn2+ assessed as compound-metal complex formation at compound to metal ratio of 1:0, 1:1, 2:1, 3:1, 4:1 and 5:1 after 30 mins by UV-visible spectrophotometry.
A short description of assay [11]: Antiproliferative activity against p53 expressing human HCT116 cells at IC50 after 96 hrs by MTS assay in presence of 20 uM CuCl2. Format: functional, HCT-116.
Assay [12] is described as follows: Antiproliferative activity against p53 expressing human HCT116 cells after 96 hrs by MTS assay. It counts as functional, cell-based. Particulars: HCT-116, 96 h.
Assay [13] relates to HCT-116. As to the kind of experiment: Antiproliferative activity against p53 expressing human HCT116 cells at IC50 after 3 to 96 hrs by MTS assay in presence of 10 to 50 uM glucose. Format: functional, cell-based.
Assay [14] has as its system HCT-116. As to the kind of experiment: Induction of apoptosis in p53 deficient human HCT116 cells assessed as caspase-3/7 activation at IC50 after 30 to 48 hrs by luminescence assay. It counts as functional, cell-based.
The subject of assay [15] is HCT-116. Description: Induction of intracellular reactive oxygen species generation in p53 expressing human HCT116 cells at IC50 after 12 hrs by fluorescence-based plate reader analysis. Format: functional, cell-based.
Assay [16] concerns HCT-116. Description: Antiproliferative activity against p53 deficient human HCT116 cells at IC50 after 96 hrs by MTS assay in presence of 50 uM ZnCl2. It counts as functional, cell-based.
A short description of assay [17]: Antiproliferative activity against p53 deficient human HCT116 cells at IC50 after 96 hrs by MTS assay in presence of 20 uM CuCl2. Format: functional, HCT-116.

As for `CC(=O)OC[C@H]1O[C@@H](NC(=O)c2ccc3ccc(C)nc3c2O)[C@H](OC(C)=O)[C@@H](OC(C)=O)[C@@H]1OC(C)=O`, the result with HCT-116 [1], with HCT-116 [3], in the assay on HCT-116 [4], with HCT-116 [5], with HCT-116 [6] and in the assay with HCT-116 [7] was Active. For the same compound, the result in assay [8] and in assay [10] was Active. Also, the results for the Activity (with Calf thymus DNA; in assay [11]) were 16.2% and 50%, respectively. For the same compound, the IC50 was determined as 15.1 µM in [2], 23.6 µM with NHDF and 13.6 µM in assay [12]. Also, in the assay on HCT-116 [9], the result was inactive.
As for `CC(=O)OC[C@H]1O[C@@H](Sc2ccc(N)cc2)[C@H](OC(C)=O)[C@@H](OC(C)=O)[C@H]1OC(C)=O`, the concentration for half-maximal inhibition (IC50) in [2] and in [12] was > 150 µM throughout.
Consider `CC(=O)OC[C@H]1O[C@@H](N)[C@H](OC(C)=O)[C@@H](OC(C)=O)[C@@H]1OC(C)=O`, for which the IC50 in assay [2] was > 300 µM; in [12], > 450 µM.
On to `Cc1ccc2c(O)c(C(=O)O)ccc2n1`, for which the IC50 in assay [2] and in [12] was > 750 µM in each case.
With `Cc1ccc2ccc(C(=O)N[C@@H]3O[C@H](CO)[C@@H](O)[C@H](O)[C@H]3O)c(O)c2n1`, the IC50 in assay [2] and in assay [12] was > 750 µM in each case.
Regarding `CC(=O)OC[C@H]1O[C@@H](SC(=O)c2ccc3nc(C)ccc3c2O)[C@H](OC(C)=O)[C@@H](OC(C)=O)[C@@H]1OC(C)=O`, the IC50 in [2] and in assay [12] was > 25 µM throughout.
In the case of `CC(=O)OC[C@H]1O[C@@H](Sc2ccc(N)cn2)[C@H](OC(C)=O)[C@@H](OC(C)=O)[C@H]1OC(C)=O`, the IC50 in assay [2] and in assay [12] was > 150 µM throughout.
On to `CC(=O)OC[C@H]1O[C@@H](Sc2ccc(N)cc2)[C@H](OC(C)=O)[C@@H](OC(C)=O)[C@@H]1OC(C)=O`, for which the half-inhibitory concentration (IC50) in [2] and in [12] was > 150 µM in each case.
Consider `CC(=O)OC[C@H]1O[C@@H](SC(=O)c2ccc3ccc(C)nc3c2O)[C@H](OC(C)=O)[C@@H](OC(C)=O)[C@H]1OC(C)=O`, for which the IC50 in [2] and in assay [12] was > 25 µM each time.
As for `CC(=O)OC[C@H]1O[C@@H](SC(=O)c2ccc3nc(C)ccc3c2O)[C@H](OC(C)=O)[C@@H](OC(C)=O)[C@H]1OC(C)=O`, the IC50 in [2] and in [12] was > 25 µM in each case.
In the case of `CC(=O)OC[C@H]1O[C@@H](Sc2ccc(NC(=O)c3ccc4ccc(C)nc4c3O)cn2)[C@H](OC(C)=O)[C@@H](OC(C)=O)[C@H]1OC(C)=O`, the outcome in the assay with HCT-116 [13], with HCT-116 [1] and in the assay on HCT-116 [14] was inactive. Besides, the Activity in the assay with Calf thymus DNA is 26.1%. The IC50 in assay [2] was 7.05 µM; with NHDF, 9.32 µM; in assay [12] it was 7.86 µM. For the same compound, the result (in the assay with HCT-116 [4]; in the assay with HCT-116 [5]; with HCT-116 [6]; in assay [8]; in assay [10]) was Active.
With `CC(=O)OC[C@H]1O[C@@H](Sc2ccc(NC(=O)c3ccc4ccc(C)nc4c3O)cc2)[C@H](OC(C)=O)[C@@H](OC(C)=O)[C@@H]1OC(C)=O`, the outcome with HCT-116 [1] and in the assay on HCT-116 [14] was inactive. For the same compound, in the assay with Calf thymus DNA, the Activity came to 10.7%. The IC50 in assay [2] came to 10.7 µM; in the assay with NHDF it was 12.4 µM; in assay [12], 12 µM. The outcome (in the assay with HCT-116 [4]; with HCT-116 [5]; in the assay with HCT-116 [6]; in assay [8]; in assay [10]) was Active.
On to `Cc1ccc2ccc(C(=O)O)c(O)c2n1`, for which the IC50 in assay [2] and in [12] was > 750 µM in each case.
As for `CC(=O)OC[C@H]1O[C@@H](Sc2ccc(NC(=O)c3ccc4ccc(C)nc4c3O)cn2)[C@H](OC(C)=O)[C@@H](OC(C)=O)[C@@H]1OC(C)=O`, the outcome in the assay with HCT-116 [13], with HCT-116 [1], in the assay with HCT-116 [16] and in the assay with HCT-116 [14] was inactive. Also, the outcome (in the assay with HCT-116 [15]; in the assay on HCT-116 [4]; in the assay on HCT-116 [5]; in the assay on HCT-116 [6]; with HCT-116 [7]; in [8]) was Active. In addition, the result in assay [10] was Active. In addition, the Activity with Calf thymus DNA was 41.5%; in assay [17], 75%. In addition, the IC50 worked out at 4.42 µM in assay [2], 11.5 µM with NHDF and 4.88 µM in assay [12].
Regarding `CC(=O)OC[C@H]1O[C@@H](Sc2ccc(NC(=O)c3ccc4ccc(C)nc4c3O)cc2)[C@H](OC(C)=O)[C@@H](OC(C)=O)[C@H]1OC(C)=O`, the result in the assay on HCT-116 [13] was inactive. Moreover, the result (in the assay on HCT-116 [1]; in the assay on HCT-116 [4]; with HCT-116 [5]; in the assay with HCT-116 [6]; in assay [8]; in assay [10]) was Active. The Activity with Calf thymus DNA amounted to 17.2%. For the same compound, the values for the IC50 (in assay [2]; in the assay with NHDF; in [12]) were 8.94 µM, 13.3 µM and 12.6 µM, respectively.
Turning to `CC(=O)OC[C@H]1O[C@@H](SC(=O)c2ccc3ccc(C)nc3c2O)[C@H](OC(C)=O)[C@@H](OC(C)=O)[C@@H]1OC(C)=O`, the IC50 in [2] and in [12] was > 25 µM each time.
`CC(=O)OC[C@H]1O[C@@H](Sc2ccc(N)cn2)[C@H](OC(C)=O)[C@@H](OC(C)=O)[C@@H]1OC(C)=O`: the IC50 in [2] and in assay [12] was > 150 µM in each case.
Turning to `CC(=O)OC[C@H]1O[C@@H](Sc2ccc(NC(=O)c3ccc4nc(C)ccc4c3O)cc2)[C@H](OC(C)=O)[C@@H](OC(C)=O)[C@@H]1OC(C)=O`, the IC50 in assay [2] and in assay [12] was > 25 µM in each case.
For the compound `Cc1ccc2ccc(C(=O)N[C@@H]3O[C@H](COCc4ccccc4)[C@H](OCc4ccccc4)[C@H](OCc4ccccc4)[C@H]3OCc3ccccc3)c(O)c2n1`, the result in the assay on HCT-116 [13] was inactive. In addition, the result in the assay with HCT-116 [15], in the assay with HCT-116 [1], with HCT-116 [4], in the assay on HCT-116 [5], in the assay on HCT-116 [6] and with HCT-116 [7] was Active. Besides, the outcome (in assay [8]; with HCT-116 [14]; in [10]) was Active. The Activity in the assay with Calf thymus DNA came to 9%. The IC50 in assay [2] came to 11.7 µM; in the assay on NHDF it was 18.6 µM; in assay [12] it was 11.6 µM.
In the case of `COc1cccc2c1C(=O)c1c(O)c3c(c(O)c1C2=O)C[C@@](O)(C(=O)CO)C[C@@H]3O[C@H]1C[C@H](N)[C@H](O)[C@H](C)O1` [DOXORUBICIN], the figures for the IC50 (in assay [2]; in the assay on NHDF; in [12]) were 0.38 µM, 3.38 µM and 0.34 µM, respectively.
`CC(=O)OC[C@H]1O[C@@H](S)[C@H](OC(C)=O)[C@@H](OC(C)=O)[C@@H]1OC(C)=O`: the IC50 in assay [2] was > 500 µM; in assay [12], > 750 µM.
